According to ChEMBL document CHEMBL1201862, “PubChem BioAssay data set” (2004):
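Briefly, cells in 96-well plates were exposed to five compound concentrations for 48 h, and endpoints were estimated by linear interpolation. GI50 marks 50% less growth.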 The source made the active and inactive calls. Rule as the data show it: active = GI50 up to about 1.1 µM and inactive = higher.

What was measured:
Assay in all cases: growth of human tumour cells (NCI), 48 h
[1] = test system: NCI-H460
[2] = test system: SNB-19
[3] = test system: HL-60
[4] = test system: SNB-75
[5] = test system: SK-MEL-5
[6] = test system: HOP-92
[7] = test system: ACHN
[8] = test system: SF-268
[9] = test system: CCRF-CEM
[10] = test system: MOLT-4
[11] = test system: SF-295
[12] = test system: 786-0
[13] = test system: HT-29
[14] = test system: Malme-3M
[15] = test system: SW-620
[16] = test system: RPMI-8226

Measured: GI50

O=c1c2ccccc2c2c3c1cccc3c1cccc3c(=O)c4ccccc4c2c31
inactive: [1] > 100 µM | [2] > 100 µM | [3] > 10 µM | [4] > 100 µM | [5] > 100 µM | [6] > 100 µM | [7] > 100 µM | [8] > 100 µM | [9] > 100 µM | [10] 46.3 µM | [11] > 100 µM | [12] > 100 µM | [13] > 100 µM | [14] > 100 µM | [15] > 100 µM

CC(=O)n1ccc2c(Cl)ncnc21
inactive: [1] > 100 µM | [2] > 100 µM | [3] > 100 µM | [16] > 100 µM | [5] > 100 µM | [6] > 100 µM | [7] > 100 µM | [8] > 100 µM | [9] > 100 µM | [10] > 100 µM | [11] > 100 µM | [12] > 100 µM | [13] > 100 µM | [15] > 100 µM
active: [4] < 0.01 µM

C/C(CC(=O)N(C(C)C)C(C)C)=N\NC(=O)c1ccncc1
inactive: [2] > 100 µM | [3] > 100 µM | [16] > 100 µM | [4] 95.7 µM | [5] > 100 µM | [6] > 100 µM | [7] > 100 µM | [8] > 100 µM | [9] > 100 µM | [10] > 100 µM | [11] > 100 µM | [12] > 100 µM | [13] > 100 µM | [14] > 100 µM | [15] > 100 µM

CC[P+](C)(Cc1ccccc1)c1ccccc1.O=C(OC(C(=O)[O-])C(OC(=O)c1ccccc1)C(=O)O)c1ccccc1 (stereo not given)
inactive: [2] > 100 µM | [16] > 100 µM | [4] > 100 µM | [8] > 100 µM | [11] > 100 µM | [12] > 100 µM | [13] > 100 µM | [14] > 100 µM

N/C(=N\O)N/N=C/c1ccc(C(F)(F)F)cc1
inactive: [1] 5.04 µM | [3] 10.9 µM | [4] 26.7 µM | [6] 18.4 µM | [7] 4.61 µM | [8] 6.61 µM | [9] 9.68 µM | [11] 26 µM | [12] 9.73 µM | [13] 17.9 µM | [14] 16.7 µM | [15] 31 µM

O=Cc1cn(S(=O)(=O)c2ccccc2)c2ccccc12
inactive: [1] > 100 µM | [2] 54.2 µM | [3] 16.7 µM | [16] 20.8 µM | [4] 26.2 µM | [7] > 100 µM | [8] 25.5 µM | [9] 23.3 µM | [10] 16.3 µM | [11] 48.3 µM | [12] 55.5 µM | [13] 55.5 µM | [14] 34.5 µM | [15] 35.5 µM

O=C(c1ccccc1)c1nc2c(Cl)ccc(Cl)c2cc1C(Br)Br
active: [16] 0.284 µM | [4] 0.668 µM | [7] 0.243 µM | [9] 0.191 µM | [12] 0.286 µM | [15] 0.308 µM
inactive: [2] 1.54 µM | [5] 1.34 µM | [8] 1.41 µM | [10] 1.36 µM | [11] 1.2 µM | [14] 2.19 µM

Cc1ccccc1C(=O)N1CCN(C(=O)c2ccccc2C)CC1
inactive: [1] > 100 µM | [2] > 100 µM | [3] > 100 µM | [16] > 100 µM | [4] > 100 µM | [5] > 100 µM | [6] > 100 µM | [7] > 100 µM | [8] > 100 µM | [9] > 100 µM | [10] > 100 µM | [11] > 100 µM | [12] > 100 µM | [13] > 100 µM | [15] > 100 µM

COc1cc2ccnc(C#N)c2cc1OCc1ccccc1
inactive: [1] > 100 µM | [2] 84.1 µM | [16] > 100 µM | [4] 21.9 µM | [5] > 100 µM | [7] > 100 µM | [8] 39.2 µM | [9] > 100 µM | [10] > 100 µM | [11] 32.1 µM | [12] 37.4 µM | [13] > 100 µM | [14] > 100 µM | [15] > 100 µM

COc1ccc(C2=NC(C)(C)CO2)cc1
inactive: [1] > 100 µM | [2] > 100 µM | [3] > 100 µM | [16] > 100 µM | [4] > 100 µM | [5] > 100 µM | [6] > 100 µM | [7] > 100 µM | [8] > 100 µM | [9] > 100 µM | [11] > 100 µM | [12] > 100 µM | [13] > 100 µM | [14] > 100 µM | [15] > 100 µM
